From US7368578B2, “Five-membered heterocyclic compounds” (Takeda Pharmaceutical Company Limited, priority 2002, dated 2008) come the findings set out here.

The target in one data set is T1, human PPARγ1 (Homo sapiens, UniProt P37231).
T1 construct: expressed in transfected cells; host or cells: CHO-K1 cells stably transfected with pVgRXR2-hPPARγ and reporter plasmid pGL3-4ERPP-TK neo
T1 sequence (P37231 1-477 isoform P37231-2): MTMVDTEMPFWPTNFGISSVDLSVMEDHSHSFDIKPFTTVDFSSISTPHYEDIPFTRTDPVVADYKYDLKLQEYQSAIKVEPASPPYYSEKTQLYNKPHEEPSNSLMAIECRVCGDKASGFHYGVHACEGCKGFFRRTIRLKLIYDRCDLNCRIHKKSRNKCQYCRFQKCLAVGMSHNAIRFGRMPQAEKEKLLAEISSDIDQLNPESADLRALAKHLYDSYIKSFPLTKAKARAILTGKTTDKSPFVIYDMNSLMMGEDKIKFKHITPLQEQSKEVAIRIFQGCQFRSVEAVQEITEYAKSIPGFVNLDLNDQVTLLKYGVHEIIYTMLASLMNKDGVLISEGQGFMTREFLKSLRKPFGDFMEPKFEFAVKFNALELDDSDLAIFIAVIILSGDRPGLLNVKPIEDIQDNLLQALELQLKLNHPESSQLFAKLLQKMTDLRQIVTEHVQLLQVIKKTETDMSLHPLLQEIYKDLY
T1 sequence (P19793 1-462 partner): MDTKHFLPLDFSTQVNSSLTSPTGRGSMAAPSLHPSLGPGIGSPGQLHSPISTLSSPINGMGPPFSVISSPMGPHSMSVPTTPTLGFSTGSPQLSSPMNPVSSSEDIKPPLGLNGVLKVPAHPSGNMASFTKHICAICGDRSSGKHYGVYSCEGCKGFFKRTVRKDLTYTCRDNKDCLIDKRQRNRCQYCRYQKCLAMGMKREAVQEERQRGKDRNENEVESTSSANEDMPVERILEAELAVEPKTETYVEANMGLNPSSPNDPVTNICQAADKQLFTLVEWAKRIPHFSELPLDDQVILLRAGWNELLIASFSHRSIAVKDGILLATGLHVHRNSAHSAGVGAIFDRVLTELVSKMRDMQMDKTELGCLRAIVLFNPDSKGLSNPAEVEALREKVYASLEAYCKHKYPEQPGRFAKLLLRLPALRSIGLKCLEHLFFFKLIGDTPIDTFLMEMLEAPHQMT
The experiment in a line: Human PPARγ1 antagonist assay (luciferase reporter in PPARγ:RXRα:4ERPP/CHO-K1 cells). In kind it is cell-based. The note with it: test compound 10^−6 M, 10 nM compound A as stimulant, luciferase activity, 24 hrs, read-out: Inhibitory rate (%). The method, then: PPARγ:RXRα:4ERPP/CHO-K1 cells (obtained in Reference Example 5a) cultured in Ham's F-12 medium (GIBCO, Inc.) supplemented with 10% fetal bovine serum (TRACE SCIENTIFIC, Ltd.) were seeded in a well of a 96 well white plate at 2×10^4 cells/well and cultured under 37° C. 5% CO2 conditions for 24 hrs. After removal of the medium, Ham's F-12 medium (GIBCO) containing 60 μl of 0.1% BSA (not containing fatty acid) (Wako Pure Chemical Industries, Ltd.), 20 μl of 10^−5M or 10^−6 M test compound and 20 μl of compound A having a final concentration of 10 nM as a stimulant were added, and the cells were cultured under 37° C. 5% CO2 conditions for 24 hrs. After removal of the medium, 40 μl of Pickagene LT7.5 (Wako Pure Chemical Industries, Ltd.) 2-fold diluted with HBSS (HANKS' BALANCED SALT SOLUTION) (BIO WHITTAKER Inc.) was added. After stirring, luciferase activity was measured using 1420 ARVO Multilabel Counter (Wallac, Inc.). In addition, a test similar to the above was conducted for the non-use of the aforementioned test compound alone and for the non-use of the aforementioned test compound and compound A to determine the luciferase activity.
The human PPARγ1 antagonistic activity of the test compound was evaluated using percentages (% inhibition) wherein the luciferase activity when 10 nM compound A alone was added was 0%, and the luciferase activity when the test compound and compound A were not added was 100%. The concentration of the test compound was 10^−5 M for the compounds of Example 42 and 315 and 10^−6 M for other test compounds.
After a CHO-K1 cell cultured in a cell culture flask (150 cm^2) (produced by Corning Costar Corporation, USA) containing Ham's F-12 medium (produced by Life Technologies, Inc., USA) supplemented with 10% fetal bovine serum (produced by Life Technologies, Inc., USA) was detached by treating with 0.5 g/L trypsin-0.2 g/L EDTA (ethylenediaminetetraacetic acid) (produced by Life Technologies, Inc., USA), the cell was washed with PBS (phosphate-buffered saline) (produced by Life Technologies, Inc., USA), centrifuged (1000 rpm, 5 minutes), and then suspended in PBS. Subsequently, the DNA was introduced into the cells under the conditions shown below using GENE PULSER (produced by Bio-Rad Laboratories, USA).
Namely, to a cuvette having a 0.4 cm gap, added were 8×10^6 cells and 10 μg of plasmid pVgRXR2-hPPARγ obtained in Reference Example 4a and 10 μg of reporter plasmid pGL3-4ERPP-TK neo obtained in Reference Example 2a, which was subjected to electroporation at the voltage of 0.25 kV under the capacitance of 960 μF. Subsequently, the cell was transferred into a Ham's F-12 medium containing 10% fetal bovine serum and cultured for 24 hours and then the cells were detached again and centrifuged, and then suspended in HAM F12 medium containing 10% fetal bovine serum supplemented with 500 μg/ml of GENETICIN (produced by Life Technologies, Inc., USA) and 250 μg/ml of ZEOCIN (produced by Invitrogen, USA). The obtained suspension was diluted to the density of 10^4 cells/ml and inoculated to a 96-well plate (produced by Corning Costar Corporation, USA), which was cultured in a CO2 gas incubator at 37° C., whereby obtaining a GENETICIN- and ZEOCIN-resistant transformant. Subsequently, after the transformant cell line thus obtained was cultured in a 24-well plate (produced by Corning Costar Corporation, USA), selected was a cell line in which the luciferase was expressed and induced, i.e., PPARγ:RXRα:4ERPP/CHO-K1 cell by the addition of 10 μM pioglitazone hydrochloride.
A general note: In a reporter assay the amount or activity of a reporter protein is the signal.

For `CCc1nc(/C=C/c2cn(-c3ccccc3)nc2OCc2ccc(OCc3nc(-c4cccc(-c5nnn[nH]5)c4)oc3C)c(OC)c2)cs1` [Example 373, 5-{3-[4-({4-[({4-[(E)-2-(2-ethyl-1,3-thiazol-4-yl)ethenyl]-1-phenyl-1H-pyrazol-3-yl}oxy)methyl]-2-methoxyphenoxy}methyl)-5-methyl-1,3-oxazol-2-yl]phenyl}-1H-tetrazole], the melting point was 144 to 147 °C. Moreover, the inhibition at 1 µM on human PPARγ1 is 112%.

A word on the melting point: it is the temperature of the solid-liquid transition.
